pIC50: −log10 of the molar value.
Experiments:
human SSAO = human SSAO (Homo sapiens (Human), UniProt Q16853); assay: SSAO enzyme inhibition assay; type: biochemical; conditions: purified recombinantly expressed human SSAO, benzylamine substrate, RT
Experimental: All primary assays were performed at RT. with purified recombinantly expressed human SSAO. Enzyme was prepared essentially as described in Öhman et al. (Protein Expression and Purification 46 (2006) 321-331). In addition, secondary- and selectivity assays were performed using SSAO prepared from various tissues or purified rat recombinant SSAO. The enzyme activity was assayed with benzylamine as substrate by measuring either benzaldehyde production, using ^14C-labeled substrate, or by utilizing the production of hydrogen peroxide in a horseradish peroxidase (HRP) coupled reaction. Briefly, test compounds were dissolved in dimethyl sulfoxide (DMSO) to a concentration of 10 mM. Dose-response measurements were assayed by either creating 1:10 serial dilutions in DMSO to produce a 7 point curve or by making 1:3 serial dilutions in DMSO to produce 11 point curves. The top concentrations were adjusted depending on the potency of the compounds and subsequent dilution in reaction buffer yielded a final DMSO concentration ≤2%.
In a horseradish peroxidase (HRP) coupled reaction, hydrogen peroxide oxidation of 10-acetyl-3,7-dihydroxyphenoxazine produced resorufin, which is a highly fluorescent compound (Zhout and Panchuk-Voloshina. Analytical Biochemistry 253 (1997) 169-174; Amplex® Red Hydrogen Peroxide/peroxidase Assay kit, Invitrogen A22188). Enzyme and compounds in 50 mM sodium phosphate, pH 7.4 were set to pre-incubate in flat-bottomed microtiter plates for approximately 15 min before initiating the reaction by addition of a mixture of HRP, benzylamine and Amplex reagent. Benzylamine concentration was fixed at a concentration corresponding to the Michaelis constant, determined using standard procedures. Fluorescence intensity was then measured at several time points during 1-2 h, exciting at 544 nm and reading the emission at 590 nm. For the human SSAO assay final concentrations of the reagents in the assay wells were: SSAO enzyme 1 ug/mL, benzylamine 100 uM, Amplex reagent 20 uM, HRP 0.1 U/mL and varying concentrations of test compound. The inhibition was measured as % decrease of the signal compared to a control without inhibitor (only diluted DMSO). The background signal from a sample containing no SSAO enzyme was subtracted from all data points. Data was fitted to a four parameter logistic model and IC50 values were calculated using the GraphPad Prism 4 or XLfit 4 programs.
SSAO activity was assayed using 14C-labeled benzylamine and analysed by measuring radioactive benzaldehyde. In a white 96-well optiplate (Packard), 20 uL of diluted test compound was pre-incubated at RT with 20 uL SSAO enzyme for approximately 15 min with continuous agitation. All dilutions were made with PBS. The reaction was initiated by adding 20 uL of the benzylamine substrate solution containing [7-14C] Benzylamine hydrochloride (CFA589, GE Healthcare). The plate was incubated for 1 h as above after which the reaction was stopped by acidification (10 uL 1M aq HCl). Then 90 uL Micro Scint-E solution (Perkin-Elmer) was added to each well and the plate was continuously mixed for 15 min. Phase separation occurred instantly and activity was read in a Topcount scintillation counter (Perkin-Elmer). In the final reaction well, the human recombinant SSAO concentration was 10 ug/mL. In order to optimize sensitivity, the substrate concentration was decreased as compared to the HRP coupled assay in order to get a higher fraction of radioactive product. In the human SSAO assay, benzylamine concentration was 40 uM (0.2 uCi/mL). Data was analysed as above.

[1] = target: human ether a go-go related gene (hERG) K+ channel (Homo sapiens (Human), UniProt Q12809); assay: hERG assay, IonWorks patch clamp electrophysiology; type: cell-based; conditions: Chinese Hamster Lung cell line stably expressing hERG, max concentration 11 uM
Sequence of human ether a go-go related gene (hERG) K+ channel (Q12809 whole entry): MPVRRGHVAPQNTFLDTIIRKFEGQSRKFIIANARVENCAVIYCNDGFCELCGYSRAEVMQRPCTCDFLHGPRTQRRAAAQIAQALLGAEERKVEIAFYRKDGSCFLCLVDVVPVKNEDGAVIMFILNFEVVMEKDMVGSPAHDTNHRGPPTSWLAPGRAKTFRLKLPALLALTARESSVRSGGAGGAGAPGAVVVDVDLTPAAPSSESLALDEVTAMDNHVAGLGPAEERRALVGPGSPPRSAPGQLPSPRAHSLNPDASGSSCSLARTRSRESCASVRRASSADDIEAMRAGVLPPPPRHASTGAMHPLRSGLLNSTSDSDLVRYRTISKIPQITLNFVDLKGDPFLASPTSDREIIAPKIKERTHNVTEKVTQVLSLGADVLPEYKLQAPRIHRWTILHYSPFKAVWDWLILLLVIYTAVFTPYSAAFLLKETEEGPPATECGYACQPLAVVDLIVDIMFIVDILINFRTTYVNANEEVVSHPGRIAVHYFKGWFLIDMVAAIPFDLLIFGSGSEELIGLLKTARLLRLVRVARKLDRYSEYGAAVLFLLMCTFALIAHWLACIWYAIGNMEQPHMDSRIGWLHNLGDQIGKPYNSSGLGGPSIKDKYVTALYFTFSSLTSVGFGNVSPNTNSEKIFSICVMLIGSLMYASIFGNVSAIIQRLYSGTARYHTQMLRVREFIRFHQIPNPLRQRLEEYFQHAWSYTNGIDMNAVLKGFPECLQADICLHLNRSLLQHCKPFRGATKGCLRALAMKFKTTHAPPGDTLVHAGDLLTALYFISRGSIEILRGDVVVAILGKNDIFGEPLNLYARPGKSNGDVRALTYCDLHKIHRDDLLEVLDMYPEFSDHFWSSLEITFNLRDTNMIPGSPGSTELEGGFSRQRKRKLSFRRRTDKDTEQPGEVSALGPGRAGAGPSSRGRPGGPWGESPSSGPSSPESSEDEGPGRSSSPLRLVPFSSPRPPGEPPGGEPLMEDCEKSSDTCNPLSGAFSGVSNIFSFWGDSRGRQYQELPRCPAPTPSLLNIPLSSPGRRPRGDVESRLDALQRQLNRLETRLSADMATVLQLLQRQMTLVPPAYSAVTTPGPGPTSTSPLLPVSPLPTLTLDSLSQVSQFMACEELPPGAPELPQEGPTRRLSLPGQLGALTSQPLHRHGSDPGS
Experimental: Compounds of the invention were tested for inhibition of the human ether a go-go related gene (hERG) K^+ channel using IonWorks patch clamp electrophysiology. 8 Point concentration-response curves were generated on two occasions using 3-fold serial dilutions from the maximum assay concentration (11 uM). Electrophysiological recordings were made from a Chinese Hamster Lung cell line stably expressing the full length hERG channel. Single cell ion currents were measured in the perforated patch clamp configuration (100 ug/mL amphoterocin) at RT using an IonWorks Quattro instrument. The internal solution contained 140 mM KCl, 1 mM MgCl2, 1 mM EGTA and 20 mM HEPES and was buffered to pH 7.3. The external solution contained 138 mM NaCl, 2.7 mM KCl, 0.9 mM CaCl2, 0.5 mM MgCl2, 8 mM Na2HPO4 and 1.5 mM KH2PO4, and was buffered to pH 7.3. Cells were clamped at a holding potential of […] for 30 s and then stepped to +40 mV for 1 s. This was followed by a hyperpolarising step of 1 s to […] to evoke the hERG tail current. This sequence was repeated 5 times at a frequency of 0.25 Hz. Currents were measured from the tail step at the 5th pulse, and referenced to the holding current. Compounds were incubated for 6-7 min prior to a second measurement of the hERG signal using an identical pulse train. A minimum of 17 cells were required for each pIC50 curve fit. […]

Sequence of human SSAO (Q16853 29-763): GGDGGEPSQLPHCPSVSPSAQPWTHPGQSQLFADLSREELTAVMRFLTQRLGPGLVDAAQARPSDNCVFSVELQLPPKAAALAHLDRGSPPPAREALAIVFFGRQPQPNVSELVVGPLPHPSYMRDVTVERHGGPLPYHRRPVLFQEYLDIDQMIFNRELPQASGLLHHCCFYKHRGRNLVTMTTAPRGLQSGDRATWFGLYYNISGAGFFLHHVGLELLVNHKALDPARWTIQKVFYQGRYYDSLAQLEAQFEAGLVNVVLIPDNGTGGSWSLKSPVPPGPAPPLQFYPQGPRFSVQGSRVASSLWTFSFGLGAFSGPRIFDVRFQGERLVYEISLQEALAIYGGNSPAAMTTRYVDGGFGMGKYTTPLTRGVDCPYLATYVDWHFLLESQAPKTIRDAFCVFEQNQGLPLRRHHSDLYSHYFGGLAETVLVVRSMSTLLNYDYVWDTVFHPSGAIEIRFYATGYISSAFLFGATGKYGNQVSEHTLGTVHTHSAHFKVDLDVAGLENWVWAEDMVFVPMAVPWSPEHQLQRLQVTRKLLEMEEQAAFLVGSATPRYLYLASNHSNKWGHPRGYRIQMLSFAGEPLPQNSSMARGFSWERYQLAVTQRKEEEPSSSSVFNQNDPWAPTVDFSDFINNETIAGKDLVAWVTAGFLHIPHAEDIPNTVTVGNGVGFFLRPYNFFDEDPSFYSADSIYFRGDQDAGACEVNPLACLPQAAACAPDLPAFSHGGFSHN

Structure (SMILES) | pIC50 (human SSAO) | pIC50 [1]
Clc1ccc(-n2c(Cc3cccnc3)nc3ccncc32)cc1 [Example 7, 3-{[3-(4-Chlorophenyl)-3H-imidazo[4,5-c]pyridin-2-yl]methyl}pyridine; bis(formic acid)] | 6.30 to 6.70 | 
O=C(NCC1CCOCC1)c1nc2ccncc2n1-c1ccc(F)cc1 [Example 9, 3-(4-Fluorophenyl)-N-(oxan-4-ylmethyl)-3H-imidazo[4,5-c]pyridine-2-carboxamide] | 6.30 to 6.70 | 
Clc1ccc(-n2c(C3CCN(c4ccncc4)CC3)nc3ccncc32)cc1 [Example 5, 4-{4-[3-(4-Chlorophenyl)-3H-imidazo[4,5-c]pyridin-2-yl]piperidin-1-yl}pyridine; bis(formic acid)] | > 7.30 | 6.00 to 8.00
O=c1cc(N2CCC(c3nc4ccncc4n3-c3ccc(Cl)cc3)CC2)nc[nH]1 [Example 6, 6-{4-[3-(4-Chlorophenyl)-3H-imidazo[4,5-c]pyridin-2-yl]piperidin-1-yl}-3,4-dihydropyrimidin-4-one] | 6.30 to 6.70 | 
Clc1ccc(-n2c(CCCn3ccnc3)nc3ccncc32)cc1 [Example 8, 1-{3-[3-(4-chlorophenyl)-3H-imidazo[4,5-c]pyridin-2-yl]propyl}-1H-imidazole] | 6.30 to 6.70 | 

Further lines, with some results ahead:

pIC50 (human SSAO) | Structure (SMILES) | pIC50 [1]
> 7.30 | Cc1ccc(-n2c(-c3cnc(NCC(C)(C)O)nc3)nc3ccncc32)cc1 [Example 4, 2-Methyl-1-({5-[3-(4-methylphenyl)-3H-imidazo[4,5-c]pyridin-2-yl]pyrimidin-2-yl}amino)propan-2-ol] | 
6.30 to 6.70 | Fc1ccc(-n2c(-c3ccc4nc[nH]c4c3)nc3ccncc32)cc1 [Example 2, 5-[3-(4-Fluorophenyl)-3H-imidazo[4,5-c]pyridin-2-yl]-1H-1,3-benzodiazole] | 
6.70 to 7.30 | O=C1Cc2cc(-c3nc4ccncc4n3-c3ccc(F)cc3)ccc2N1 [Example 1, 5-[3-(4-Fluorophenyl)-3H-imidazo[4,5-c]pyridin-2-yl]-2,3-dihydro-1H-indol-2-one] | 
> 7.30 | CC(C)(O)CNc1ncc(-c2nc3ccncc3n2-c2ccc(F)cc2)cn1 [Example 3, 1-({5-[3-(4-Fluorophenyl)-3H-imidazo[4,5-c]pyridin-2-yl]pyrimidin-2-yl}amino)-2-methylpropan-2-ol] | < 5.00
